In patent US5733719A, “Method of making an assay compound” (priority 1995, dated 1998):

Key:
[1] = test system: Grans; test: Peptidases to distinguish leukemia from non-leukemia, granulocytes; type: cell-based, human; set-up: unit not given here
Description: (§1) Artificial intelligence was used to analyze data of cellular enzyme functions, and determine normal and disease states. Peptidases were used to distinguish leukemia from non-leukemia (output pattern). For input patterns lymphocyte and granulocyte cell types were used with aminopeptidases, cathepsins and dipeptidylpeptidase enzyme activities. In this Example, illustrated in Tables 6A-6C, three normals and three leukemia patients were used as known output patterns for the neural network to learn (in practice, the larger the learning set the more accurate unknown prediction will be). Unknowns were then presented to the learned algorithm as shown in the test case examples. Clinical diagnosis was confirmed by physicians. The trained neural network was able to correctly classify the leukemia from the non-leukemia.

[2] = test system: Lymphs; test: Peptidases to distinguish leukemia from non-leukemia, lymphocytes; type: cell-based, human; set-up: unit not given here
Description: as §1

Compound CC(C)C[C@H](N)C(=O)NCC(=O)Nc1ccc2c(c1)Oc1cc(NC(=O)CNC(=O)[C@@H](N)CC(C)C)ccc1C21OC(=O)c2ccccc21 [LG] has an enzyme activity ([1]; J4 11/21/91 acute leuk.) of 0.85, an enzyme activity ([1]; J4 12/2/91 AL) of 0.79 and an enzyme activity ([1]; J4 12/3/91 acute leuk.) of 1.06. For the same compound, the enzyme activity ([1]; J5 11/27/91 AML) was 2.51, the enzyme activity ([1]; J19 11/27/91 CLL) was 36.35 and the enzyme activity ([1]; J22 12/2/91 AML) was 1.56. For the same compound, the enzyme activity ([1]; J22 12/9/91 AML) was 1.94, the enzyme activity ([1]; N99° normal) was 2.022 and the enzyme activity ([1]; N191 normal) was 5.37. It also gave an enzyme activity ([1]; N192 normal) of 6.78, an enzyme activity ([1]; N193 normal) of 3.65 and an enzyme activity ([1]; N194 normal) of 3.52. The enzyme activity ([1]; N195 normal) was 4.11, the enzyme activity ([1]; N197 normal) was 4.41 and the enzyme activity ([1]; N200 normal) was 3.40. It also gave an enzyme activity ([1]; N201 normal) of 3.14, an enzyme activity ([1]; N202 normal) of 2.70 and an enzyme activity ([1]; N206 normal) of 6.01. The enzyme activity ([1]; P68 tachycardia) was 2.52, the enzyme activity ([1]; P69 pancreatic CA) was 3.53 and the enzyme activity ([1]; P70 cirrhosis/hemobilia) was 2.20. It also gave an enzyme activity ([1]; P71 ac. pyelonephritis) of 4.00, an enzyme activity ([2]; J4 11/21/91 acute leuk.) of 0.16 and an enzyme activity ([2]; J4 12/2/91 AL) of 0.18. It also gave an enzyme activity ([2]; J4 12/3/91 acute leuk.) of 0.19, an enzyme activity ([2]; J5 11/27/91 AML) of 0.23 and an enzyme activity ([2]; J19 11/27/91 CLL) of 0.02. The enzyme activity ([2]; J22 12/2/91 AML) was 0.02, the enzyme activity ([2]; J22 12/9/91 AML) was 0.61 and the enzyme activity ([2]; N99° normal) was 0.85. The enzyme activity ([2]; N191 normal) was 2.42, the enzyme activity ([2]; N192 normal) was 3.45 and the enzyme activity ([2]; N193 normal) was 1.56. It also gave an enzyme activity ([2]; N194 normal) of 2.06, an enzyme activity ([2]; N195 normal) of 1.93 and an enzyme activity ([2]; N197 normal) of 1.79. For the same compound, the enzyme activity ([2]; N200 normal) was 1.55, the enzyme activity ([2]; N201 normal) was 1.57 and the enzyme activity ([2]; N202 normal) was 1.28. It also gave an enzyme activity ([2]; N206 normal) of 3.12, an enzyme activity ([2]; P68 tachycardia) of 0.78 and an enzyme activity ([2]; P69 pancreatic CA) of 2.00. It also gave an enzyme activity ([2]; P70 cirrhosis/hemobilia) of 0.79 and an enzyme activity ([2]; P71 ac. pyelonephritis) of 0.68.
NC(=O)CC[C@H](N)C(=O)N[C@@H](CO)C(=O)Nc1ccc2c(c1)Oc1cc(NC(=O)[C@H](CO)NC(=O)[C@@H](N)CCC(N)=O)ccc1C21OC(=O)c2ccccc21 [QS, (H--L--Gln--Ser)2 Rho 110-2TFA] was tested, and the enzyme activity ([1]; J4 11/21/91 acute leuk.) was 0.22, the enzyme activity ([1]; J4 12/2/91 AL) was 0.44 and the enzyme activity ([1]; J4 12/3/91 acute leuk.) was 0.19. For the same compound, the enzyme activity ([1]; J5 11/27/91 AML) was 1.24, the enzyme activity ([1]; J19 11/27/91 CLL) was 1.16 and the enzyme activity ([1]; J22 12/2/91 AML) was 0.10. It also gave an enzyme activity ([1]; J22 12/9/91 AML) of 0.24, an enzyme activity ([1]; N99° normal) of 0.05 and an enzyme activity ([1]; N191 normal) of 0.19. For the same compound, the enzyme activity ([1]; N192 normal) was 0.15, the enzyme activity ([1]; N193 normal) was 0.14 and the enzyme activity ([1]; N194 normal) was 0.07. It also gave an enzyme activity ([1]; N195 normal) of 0.21, an enzyme activity ([1]; N197 normal) of 0.24 and an enzyme activity ([1]; N200 normal) of 0.06. For the same compound, the enzyme activity ([1]; N201 normal) was 0.09, the enzyme activity ([1]; N202 normal) was 0.08 and the enzyme activity ([1]; N206 normal) was 0.27. It also gave an enzyme activity ([1]; P68 tachycardia) of 0.33, an enzyme activity ([1]; P69 pancreatic CA) of 0.37 and an enzyme activity ([1]; P70 cirrhosis/hemobilia) of 0.19. For the same compound, the enzyme activity ([1]; P71 ac. pyelonephritis) was 0.51, the enzyme activity ([2]; J4 11/21/91 acute leuk.) was 0.05 and the enzyme activity ([2]; J4 12/2/91 AL) was 0.01. It also gave an enzyme activity ([2]; J4 12/3/91 acute leuk.) of 0.06, an enzyme activity ([2]; J5 11/27/91 AML) of 0.07 and an enzyme activity ([2]; J19 11/27/91 CLL) of 0.06. The enzyme activity ([2]; J22 12/2/91 AML) was 0.02, the enzyme activity ([2]; J22 12/9/91 AML) was 0.02 and the enzyme activity ([2]; N99° normal) was 0.02. For the same compound, the enzyme activity ([2]; N191 normal) was 0.02, the enzyme activity ([2]; N192 normal) was 0.03 and the enzyme activity ([2]; N193 normal) was 0.03. It also gave an enzyme activity ([2]; N194 normal) of 0.02, an enzyme activity ([2]; N195 normal) of 0.04 and an enzyme activity ([2]; N197 normal) of 0.06. The enzyme activity ([2]; N200 normal) was 0.01, the enzyme activity ([2]; N201 normal) was 0.02 and the enzyme activity ([2]; N202 normal) was 0.01. It also gave an enzyme activity ([2]; N206 normal) of 0.04, an enzyme activity ([2]; P68 tachycardia) of 0.02 and an enzyme activity ([2]; P69 pancreatic CA) of 0.31. It also gave an enzyme activity ([2]; P70 cirrhosis/hemobilia) of 0.04 and an enzyme activity ([2]; P71 ac. pyelonephritis) of 0.05.
